Source: article PMC11110727, “Exploiting thiol-functionalized benzosiloxaboroles for achieving diverse substitution patterns – synthesis, characterization and biological evaluation of promising antibacterial agents” (RSC Medicinal Chemistry, 2024)
In brackets after ≈: the same amount, converted by molar mass.

Columns and labels:
[1] = tested on: E. faecalis ATCC 29212; test: Antibacterial activity: MIC/MBC determination and disc-diffusion; assay type: cell-based; details: Enterococcus faecalis, ATCC29212; E. faecalis ATCC 29212; read-out: MIC
Summary of the method: (§1)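 Yeasts are grown twice on Sabouraud dextrose agar and bacteria twice on tryptic soy agar (30 °C, 24–48 h). MIC and disc-diffusion testing follow EUCAST/CLSI, and fungicidal or bactericidal activity follows CLSI. Compounds are dissolved in DMSO.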

[2] = tested on: E. faecium ATCC 6057; test: as above; assay type: cell-based; details: Enterococcus faecium, ATCC6057; E. faecium ATCC 6057; read-out: MIC
Summary of the method: as §1

[3] = tested on: S. aureus ATCC 43300 MRSA; test: as above; assay type: cell-based; details: Staphylococcus aureus; S. aureus ATCC 43300 MRSA; read-out: MIC
Summary of the method: as §1

[4] = tested on: S. epidermidis ATCC 12228; test: as above; assay type: cell-based; details: Staphylococcus epidermidis, ATCC12228, S. epidermidis ATCC 12228; for MIC: read-out: MIC
Summary of the method: as §1

[5] = tested on: E. coli ATCC 25922; test: Antibacterial activity: MIC/MBC, MIC with PAβN, disc-diffusion; assay type: cell-based, Escherichia coli; details: E. coli ATCC 25922; for -fold reduction of MIC in the presence of PAβN: PAβN 20 μg mL^−1, MHB + 1 mM MgSO4; for MIC: Escherichia coli, ATCC25922, read-out: MIC
Summary of the method: (§2)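 MICs were measured by CLSI broth microdilution in Mueller–Hinton II broth, with or without the efflux-pump inhibitor PAβN (20 μg mL^−1) and with 1 mM MgSO4 present. A reduction of at least 4-fold with PAβN was counted as significant. Disc diffusion followed EUCAST/CLSI, MBC followed CLSI, and compounds were dissolved in DMSO.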

[6] = tested on: K. pneumoniae ATCC 13883; test: as above; assay type: cell-based, Klebsiella pneumoniae; details: Klebsiella pneumoniae, ATCC13883; K. pneumoniae ATCC 13883; read-out: MIC
Summary of the method: as §2

[7] = tested on: P. mirabilis ATCC 12453; test: as above; assay type: cell-based, Proteus mirabilis; details: Proteus mirabilis, ATCC12453; P. mirabilis ATCC 12453; read-out: MIC
Summary of the method: as §2

[8] = tested on: A. baumannii ATCC 19606; test: as above; assay type: cell-based, Acinetobacter baumannii; details: Acinetobacter baumannii, ATCC19606; A. baumannii ATCC 19606; read-out: MIC
Summary of the method: as §2

[9] = tested on: S. maltophilia ATCC 13637; test: as above; assay type: cell-based, Stenotrophomonas maltophilia; details: Stenotrophomonas maltophilia, ATCC13637; S. maltophilia ATCC 13637; read-out: MIC
Summary of the method: as §2

[10] = tested on: C. krusei ATCC 6258; test: Antifungal activity: MIC/MFC, disc-diffusion; assay type: cell-based; details: Pichia kudriavzevii, ATCC6258; read-out: MIC
Summary of the method: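 Compounds in DMSO were tested by disc diffusion and MIC determination following EUCAST/CLSI guidance, with fungicidal concentration (MFC) per CLSI. Strain first grown twice-checked on Sabouraud dextrose agar, 30 °C, 24–48 h.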

SMILES | MIC [1] [µg/mL] | MIC [2] [µg/mL] | MIC [3] [µg/mL] | MIC [4] [µg/mL] | -fold reduction of MIC in the presence of PAβN [5] | MIC [5] [µg/mL] | MIC [6] [µg/mL] | MIC [7] [µg/mL] | MIC [8] [µg/mL] | MIC [9] [µg/mL] | MIC [10] [µg/mL] | MBC [4] [µg/mL]
C[Si]1(C)OB(O)c2cc(F)c(S(N)(=O)=O)c(F)c21 [Compound 27, 5,7-Difluoro-3-hydroxy-1,1-dimethyl-1,3-dihydrobenzo[c][1,2,5]oxasilaborole-6-sulfonamide] | 400 (≈ 1360 µM) | 400 (≈ 1360 µM) | > 400 | > 400 | 2 -fold | > 400 | > 400 | > 400 | > 400 | > 400 | > 400 | 
C[Si]1(C)OB(O)c2cc(F)c(S(=O)(=O)Nc3ccc(F)cc3)c(F)c21 [Compound 28, 5,7-Difluoro-N-(4-fluorophenyl)-3-hydroxy-1,1-dimethyl-1,3-dihydrobenzo[c][1,2,5]oxasilaborole-6-sulfonamide] | 400 (≈ 1030 µM) | 400 (≈ 1030 µM) | 100 (≈ 258 µM) | 50 (≈ 129 µM) | 4 -fold | > 400 | > 400 | > 400 | > 400 | > 400 | > 400 | 100 (≈ 258 µM)
